Measurements: PMC10744612, “Genome Mining Reveals a Surprising Number of Sugar Reductases in Aspergillus niger” (Journal of Fungi, 2023)
Read-outs that look alike come from different tables or passages of the source.

Key:
Assay in all cases: NADPH oxidation at […] nm, Michaelis-Menten fit
Type in all cases: biochemical, Aspergillus niger
Conditions in all cases: 0.2 mM NADPH, HEPES pH 7.0
SrdE = system: T1, SrdE
T1 construct: cDNA in pET-28a(+), His-tag purified from E. coli

SrdB = system: T2, SrdB
T2 construct: cDNA in pET-28a(+), His-tag purified from E. coli

XyrB = system: T3, XyrB
T3 construct: recombinant plasmid from a previous study, His-tag purified from E. coli

Row | Structure (SMILES) | Km (SrdE; read-out: D-xylose / Km) [mM] | Km (SrdB; read-out: D-xylose / Km) [mM] | Km (XyrB; read-out: D-xylose / Km) [mM] | Km (SrdE; read-out: L-arabinose / Km) [mM] | Km (SrdB; read-out: L-arabinose / Km) [mM] | Km (XyrB; read-out: L-arabinose / Km) [mM]
1 | OC1OC[C@@H](O)[C@H](O)[C@H]1O (stereo partly drawn) [D-xylose] | 1.1 | 2.8 | 3 | – | – | –
2 | OC1OC[C@H](O)[C@H](O)[C@H]1O (stereo partly drawn) [L-arabinose] | – | – | – | 4.3 | 4.5 | 12.3
